Data from patent US20180209956A1, “HTS Assay for Identifying Small Molecule Inhibitors of RAD52 and Uses of Identified Small Molecule Inhibitors for Treatment and Prevention of BRCA-Deficient Malignancies” (University of Iowa Research Foundation, priority 2015, published 2018).

Experiments:
RPA-ssDNA interaction = target: T1, RPA-ssDNA interaction (Homo sapiens, UniProt P15927+P27694+P35244); test: FRET titration of the RPA-Cy3-dT30-Cy5 complex; assay type: binding
T1 construct: made in house
Source text: Compounds ‘1’ and ‘6’ inhibit RAD52 binding to and annealing of the RPA-coated ssDNA: In the cell, ssDNA is typically found in complex with Replication protein A (RPA), which is the major eukaryotic ssDNA-binding protein essential for DNA replication, repair and recombination (Wold, 1997, Oakley and Patrick, 2010, Chen and Wold, 2014). The RPA-ssDNA complex is a natural substrate for the RDA52-mediated strand annealing. To confirm that compounds ‘1’ and ‘6’ can inhibit the RAD52 binding to and annealing of the RPA-coated ssDNA we added stoichiometric amounts of RPA (1 RPA per 30 nucleotides of ssDNA) to the FRET-based ssDNA binding/wrapping and ssDNA annealing experiments described above. RPA binds ssDNA with high affinity and extends the ssDNA to its contour length. In our assays such an extension manifests as a distinct FRET state of ˜0.3, which is readily distinguished from a FRET state of ˜0.48 of free Cy3-dT30-Cy5 ssDNA, as well as ˜0.63 FRET of the stoichiometric ssDNA-RPA-RAD52 complex (see FIG. 2 Supplement 1 and (Grimme and Spies, 2011) for details). […] Both, however, inhibited the RAD52 binding to and wrapping of RPA-coated ssDNA with IC50 values identical to those determined without RPA (FIG. 2e and FIG. 3e).
where FRET0 is the initial FRET value of RAD52-ssDNA complex in the absence of the compound and FRETmin is the FRET value at complete inhibition. FRET values were calculated as an average of three or more independent annealing reactions plotted against the concentration of the compound. Inhibition of the RAD52-dsDNA interaction was assayed in a similar experiment, except the stoichiometric complexes containing 1 nM molecules of Cy3-Oligo28-Cy5 duplex DNA and 10 nM RAD52. […] In all experiments, the FRET values for each data point were corrected for the effects of the compounds on the respective substrate in the absence of RAD52.

RPA = target: T2, RPA (Homo sapiens, UniProt P15927+P27694+P35244); test: WaterLOGSY NMR analysis of compound binding to RPA; settings: 20 or 40 μM compound, 3.3 μM RPA
T2 construct: made in house
Source text: Compounds ‘1’ and ‘6’ physically interact with RAD52: To confirm that the selected compounds bind RAD52, we employed water-ligand observation with gradient spectroscopy (WaterLOGSY), an NMR technique, which is based on transfer of magnetization from bulk water to the protein-bound compound of interest (Dalvit et al., 2001, Dalvit et al., 2000). In WaterLOGSY spectrum, if a compound binds to a protein, the compound will receive negative nuclear Overhauser effects (NOEs) due to the slow tumbling of the protein-compound complex, leading to a positive WaterLOGSY peak.
WaterLOGSY NMR analysis of the compound binding to RAD52 and RPA proteins: Compound binding to RAD52 and RPA proteins was analyzed using water-ligand observation with gradient spectroscopy (WaterLOGSY) NMR experiments (Dalvit et al., 2001, Dalvit et al., 2000). The WaterLOGSY spectra of compounds in the presence of RAD52 or RPA were acquired using a water NOE mixing time of 1 s and a T2 relaxation filter of 50 ms just before data acquisition to suppress the broad signals derived from protein. The protein buffer used in the experiments contains 10 mM Tris-d11, 75 mM KCl, 0.25 mM EDTA, pH 7.5, and 10% D20. All NMR data were acquired on a Bruker Avance II 800 MHz NMR spectrometer equipped with a sensitive cryoprobe and recorded at 25° C. The ^1H chemical shifts were referenced to 2,2-dimethyl-2-silapentane-5-sulfonate (DSS). NMR spectra were processed using NMR Pipe (Delaglio et al., 1995) and analysed using NMR View (Johnson and Blevins, 1994).

GM01604 cells = test: Neutral comet assay of RAD52/MUS81-dependent DSB formation; assay type: cell-based, human; settings: for IC50 for decrease of mean tail moment following HU treatment, in words: 2 mM HU + 300 nM UCN01, 6 h
Source text: Inhibiting the RAD52-ssDNA interaction interferes with RAD52/MUS81-mediated DSB formation essential for the replication fork recovery in check point deficient cells: In human cells, RAD52 may perform both limited recombination-mediator function in the RAD51-dependent pathway (Lok and Powell, 2012, Benson et al., 1998, Feng et al., 2011) as well as additional RAD51-independent roles (Lok and Powell, 2012, Murfuni et al., 2013, Mcllwraith and West, 2008). One of these HR independent roles of RAD52 involves stimulation of MUS81/EME1-dependent DSB formation at the replication forks stalled by hydroxyurea (HU) treatment in the absence of cellular checkpoints (Murfuni et al., 2013). Since the most likely targets of these MUS81/EME1/RAD52-dependent DSBs are the DNA structures produced by RAD52 (Murfuni et al., 2013), we expected this activity to depend on the RAD52-ssDNA interaction (FIG. 5a). To confirm this, we assessed DSB formation in the checkpoint deficient cells using the neutral comet assay. These assays monitor MUS81/EME1/RAD52-dependent DSB formation upon induction of replication stress by HU treatment in primary fibroblasts immortalized by hTERT expression and treated with UNC01 to inhibit CHK1 kinase (FIG. 5b). […] Importantly, these inhibitors recapitulate RAD52 depletion by inhibiting RAD52-MUS81-dependent DSBs at stalled replication forks (FIG. 5a-b). […] It also confirms our previous supposition that the target of MUS81/EME1-mediated cleavage under these conditions are indeed the structures annealed by RAD52. […] We previously reported that concomitant depletion of RAD52 and MUS81 gives raise to the MUS81-independent DSBs (Murfuni et al., 2013). […] Furthermore, accumulation of anaphase bridges, a phenotype associated with impairment of the RAD52-independent mitotic function of MUS81/EME1 was completely unaffected by inhibition of RAD52, whereas it was strongly stimulated by MUS81 silencing (FIG. 5 Supplement 1).
Neutral Comet Assay: To induce RAD52-MUS81-dependent cleavage at arrested replication forks (Murfuni et al., 2013), hTERT-immortalized wild-type human fibroblasts (GM01604) were treated with 2 mM HU and 300 nM UCN01 for 6 h, in the presence and absence of varying concentrations of ‘1’ or ‘6’. Where indicated, the GM01604 cells were cells were transfected with siRNAs directed against GFP (Ctrl), or against RAD52 (Qiagen) 48 hours prior to induction of the replication stress and/or inhibitor treatment. After that cells were subjected to neutral comet assay as described in Murfuni et al (Murfuni et al., 2013). Slides were analyzed by a computerized image analysis system (Comet IV, Perceptive UK). To assess the quantity of DNA damage, computer-generated tail moment values (tail length×fraction of total DNA in the tail) were used. Apoptotic cells (smaller comet head and extremely larger comet tail) were excluded from the analysis to avoid artificial enhancement of tail moment. A minimum of 100 cells were analyzed for each compound concentration point.

T2 sequence (P27694 whole entry): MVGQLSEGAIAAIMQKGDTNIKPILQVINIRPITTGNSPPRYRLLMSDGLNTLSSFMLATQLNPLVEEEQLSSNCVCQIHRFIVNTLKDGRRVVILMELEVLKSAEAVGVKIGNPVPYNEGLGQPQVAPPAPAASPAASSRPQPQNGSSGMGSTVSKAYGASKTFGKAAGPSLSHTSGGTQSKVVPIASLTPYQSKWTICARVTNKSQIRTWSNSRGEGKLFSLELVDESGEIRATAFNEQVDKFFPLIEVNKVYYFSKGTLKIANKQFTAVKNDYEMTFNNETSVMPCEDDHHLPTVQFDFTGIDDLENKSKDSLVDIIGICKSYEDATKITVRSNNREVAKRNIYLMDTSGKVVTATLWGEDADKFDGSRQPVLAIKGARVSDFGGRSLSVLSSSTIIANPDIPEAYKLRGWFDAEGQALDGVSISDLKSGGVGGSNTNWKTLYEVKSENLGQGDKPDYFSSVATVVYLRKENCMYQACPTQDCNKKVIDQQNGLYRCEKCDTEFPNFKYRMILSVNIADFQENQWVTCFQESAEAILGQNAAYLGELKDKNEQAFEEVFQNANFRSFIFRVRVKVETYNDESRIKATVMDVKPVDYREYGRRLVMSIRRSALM
T2 sequence (P15927 whole entry): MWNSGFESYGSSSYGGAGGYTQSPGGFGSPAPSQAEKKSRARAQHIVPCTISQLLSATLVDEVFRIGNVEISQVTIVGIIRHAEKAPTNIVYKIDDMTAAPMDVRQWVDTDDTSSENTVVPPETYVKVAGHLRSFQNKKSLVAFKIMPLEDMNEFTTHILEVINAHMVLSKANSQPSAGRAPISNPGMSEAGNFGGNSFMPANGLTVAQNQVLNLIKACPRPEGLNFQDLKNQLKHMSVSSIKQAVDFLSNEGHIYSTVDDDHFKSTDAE
T2 sequence (P35244 whole entry): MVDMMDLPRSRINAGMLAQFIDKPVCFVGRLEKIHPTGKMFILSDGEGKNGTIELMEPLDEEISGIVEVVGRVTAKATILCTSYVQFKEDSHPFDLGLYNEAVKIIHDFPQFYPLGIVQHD
T1 sequence (P27694 whole entry): as the sequence (P27694 whole entry) above
T1 sequence (P15927 whole entry): as the sequence (P15927 whole entry) above
T1 sequence (P35244 whole entry): as the sequence (P35244 whole entry) above

Row | Compound | Effect on the RPA-ssDNA interaction (RPA-ssDNA interaction) | Binding to RPA by WaterLOGSY (RPA) | IC50 for decrease of mean tail moment following HU treatment, in words (GM01604 cells) | Concentration sufficient to achieve the same level in DSB reduction as siRNA treatment (GM01604 cells; HU + UCN01) | DSB formation in RAD52-depleted cells (GM01604 cells; RAD52 siRNA plus compound) | Reduction in DSBs compared with siRNA depletion of RAD52 (GM01604 cells; 500 nM compound, HU + UCN01) | DSB formation in MUS81-depleted cells (GM01604 cells; replication stress induced by CHK1 inhibition)
1 | O=C(O[C@@H]1Cc2c(O)cc(O)cc2O[C@@H]1c1cc(O)c(O)c(O)c1)c1cc(O)c(O)c(O)c1 [Compound 6, Epigallocatechin-3-monogallate] | does not interfere with the RPA-ssDNA interaction | binds to RPA | mid nanomolar to low micromolar | higher concentration | failed to further decrease the formation of DNA breaks | – | –
2 | Oc1cc(O)c2c(c1)O[C@H](c1cc(O)c(O)c(O)c1)[C@H](O)C2 [Compound ‘1’, (−)-Epigallocatechin] | nor interferes with the RPA-ssDNA interaction | neither binds to RPA | mid nanomolar to low micromolar | 1 µM | – | same effect of reduction in DSBs as siRNA depletion of RAD52 | appearance of the MUS81-independent DSBs
